Usually inhibition stands for the drop in the measured response relative to a control, in per cent. Broadly, the residual activity is the share of the control activity or signal that is left under treatment. Read a high residual activity as much activity left.

Activity calls are given as the source filed them. The rule behind the calls is not given here.

For three compounds, inhibition and residual activity results are on record in ChEMBL document CHEMBL5696442, “Discovery of type II inhibitors of TGFβ-activated kinase 1 (TAK1) and mitogen-activated protein kinase kinase kinase kinase 2 (MAP4K2)” (J Med Chem, 2015).

Assay [1] has as its target T1, Serine/threonine-protein kinase 3 (Homo sapiens) (UniProt Q13188).
T1 sequence (whole entry): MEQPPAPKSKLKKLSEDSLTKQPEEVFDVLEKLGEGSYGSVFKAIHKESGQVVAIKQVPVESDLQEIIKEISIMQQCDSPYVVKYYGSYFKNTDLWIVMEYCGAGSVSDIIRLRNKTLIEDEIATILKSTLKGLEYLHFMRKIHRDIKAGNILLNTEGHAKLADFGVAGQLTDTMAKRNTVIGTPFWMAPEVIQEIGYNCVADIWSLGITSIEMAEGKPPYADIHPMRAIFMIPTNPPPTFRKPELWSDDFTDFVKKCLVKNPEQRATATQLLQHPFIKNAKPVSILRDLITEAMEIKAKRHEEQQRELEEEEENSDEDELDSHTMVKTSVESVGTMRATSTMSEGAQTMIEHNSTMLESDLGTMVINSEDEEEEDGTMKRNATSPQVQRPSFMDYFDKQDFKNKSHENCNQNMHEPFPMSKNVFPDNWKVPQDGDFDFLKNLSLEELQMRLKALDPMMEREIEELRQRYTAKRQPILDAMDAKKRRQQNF
Description: Inhibition of MST2 Lys1 labeling site in human A-375 cells at 0.5 uM by KiNativ Profiling analysis relative to control. It is filed as cell-based.

Assay [2] deals with Epidermal growth factor receptor (Homo sapiens), P00533 [UNDEFINED MUTATION]. Description: Inhibition of EGFR E746-A750del mutant (unknown origin) at 1 uM by Ambit Kinomescan binding assay relative to control.
Epidermal growth factor receptor (Homo sapiens), P00533 [UNDEFINED MUTATION], sequence (P00533 whole entry, looked up, stated change not applied): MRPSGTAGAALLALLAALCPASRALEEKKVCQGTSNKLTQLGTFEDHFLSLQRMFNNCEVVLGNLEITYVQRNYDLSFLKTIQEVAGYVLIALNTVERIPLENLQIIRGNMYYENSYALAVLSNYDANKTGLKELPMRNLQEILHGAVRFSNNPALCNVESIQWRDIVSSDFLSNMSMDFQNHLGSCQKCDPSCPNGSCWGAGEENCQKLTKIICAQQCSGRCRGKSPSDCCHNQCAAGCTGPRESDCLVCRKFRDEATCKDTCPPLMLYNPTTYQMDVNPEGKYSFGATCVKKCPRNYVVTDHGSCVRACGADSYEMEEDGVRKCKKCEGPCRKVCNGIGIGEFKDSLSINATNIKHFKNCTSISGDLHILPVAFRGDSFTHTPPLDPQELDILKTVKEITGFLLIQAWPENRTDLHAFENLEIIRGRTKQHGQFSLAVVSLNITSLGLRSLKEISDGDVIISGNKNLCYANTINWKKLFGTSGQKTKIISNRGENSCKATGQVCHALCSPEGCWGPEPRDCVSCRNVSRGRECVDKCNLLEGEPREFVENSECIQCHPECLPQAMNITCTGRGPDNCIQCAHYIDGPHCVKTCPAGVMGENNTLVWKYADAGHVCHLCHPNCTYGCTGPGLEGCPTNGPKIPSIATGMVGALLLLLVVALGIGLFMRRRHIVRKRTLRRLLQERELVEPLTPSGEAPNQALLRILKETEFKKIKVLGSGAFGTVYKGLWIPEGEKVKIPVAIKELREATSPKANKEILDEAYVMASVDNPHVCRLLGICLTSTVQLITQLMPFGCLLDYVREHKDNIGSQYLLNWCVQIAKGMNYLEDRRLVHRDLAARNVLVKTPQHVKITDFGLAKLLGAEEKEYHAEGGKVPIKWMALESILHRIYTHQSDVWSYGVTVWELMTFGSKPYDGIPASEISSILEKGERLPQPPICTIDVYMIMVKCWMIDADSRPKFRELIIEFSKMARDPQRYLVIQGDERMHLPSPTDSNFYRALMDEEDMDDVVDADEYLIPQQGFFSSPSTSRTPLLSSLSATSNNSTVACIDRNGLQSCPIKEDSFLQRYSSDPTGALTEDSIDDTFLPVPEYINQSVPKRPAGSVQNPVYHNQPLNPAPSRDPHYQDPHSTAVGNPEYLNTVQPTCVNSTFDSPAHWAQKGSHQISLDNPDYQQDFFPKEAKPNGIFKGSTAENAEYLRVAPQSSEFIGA
Assay [3] deals with Fibroblast growth factor receptor 3 (Homo sapiens), P22607 [G697C]. Description: Inhibition of FGFR3 G697C mutant (unknown origin) at 1 uM by Ambit Kinomescan binding assay relative to control; values are per cent of control.
Fibroblast growth factor receptor 3 (Homo sapiens), P22607 [G697C], sequence (P22607 whole entry G697C): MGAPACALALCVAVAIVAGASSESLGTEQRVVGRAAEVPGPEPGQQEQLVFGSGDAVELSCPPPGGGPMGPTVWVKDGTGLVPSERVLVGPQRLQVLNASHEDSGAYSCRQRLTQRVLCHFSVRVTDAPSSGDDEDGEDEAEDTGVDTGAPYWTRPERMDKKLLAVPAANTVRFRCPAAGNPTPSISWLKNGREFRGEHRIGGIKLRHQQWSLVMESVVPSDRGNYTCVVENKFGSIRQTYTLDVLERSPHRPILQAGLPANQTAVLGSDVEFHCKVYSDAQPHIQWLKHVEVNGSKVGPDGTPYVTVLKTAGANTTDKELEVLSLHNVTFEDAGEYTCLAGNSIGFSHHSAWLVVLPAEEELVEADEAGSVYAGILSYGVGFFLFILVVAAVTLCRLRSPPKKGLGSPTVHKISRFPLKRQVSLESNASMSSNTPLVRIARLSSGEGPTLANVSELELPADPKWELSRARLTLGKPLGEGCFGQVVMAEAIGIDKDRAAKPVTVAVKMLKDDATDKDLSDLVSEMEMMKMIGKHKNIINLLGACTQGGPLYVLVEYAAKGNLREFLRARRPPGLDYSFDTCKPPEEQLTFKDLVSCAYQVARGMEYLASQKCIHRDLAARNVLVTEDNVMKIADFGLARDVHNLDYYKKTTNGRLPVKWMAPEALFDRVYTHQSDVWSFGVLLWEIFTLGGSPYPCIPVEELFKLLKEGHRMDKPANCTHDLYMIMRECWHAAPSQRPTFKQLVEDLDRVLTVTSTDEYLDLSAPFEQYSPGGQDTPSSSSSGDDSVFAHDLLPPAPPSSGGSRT
Assay [4] concerns the target Bone morphogenetic protein receptor type-1A (Homo sapiens) (UniProt P36894). Description: Inhibition of BMPR1A (unknown origin) at 10 uM by Ambit Kinomescan binding assay.
The target in assay [5] is Dual specificity protein kinase CLK3 (Homo sapiens) (UniProt P49761). Description: Inhibition of CLK3 (unknown origin) at 10 uM by Ambit Kinomescan binding assay.
Dual specificity protein kinase CLK3 (Homo sapiens), sequence (P49761 whole entry, looked up): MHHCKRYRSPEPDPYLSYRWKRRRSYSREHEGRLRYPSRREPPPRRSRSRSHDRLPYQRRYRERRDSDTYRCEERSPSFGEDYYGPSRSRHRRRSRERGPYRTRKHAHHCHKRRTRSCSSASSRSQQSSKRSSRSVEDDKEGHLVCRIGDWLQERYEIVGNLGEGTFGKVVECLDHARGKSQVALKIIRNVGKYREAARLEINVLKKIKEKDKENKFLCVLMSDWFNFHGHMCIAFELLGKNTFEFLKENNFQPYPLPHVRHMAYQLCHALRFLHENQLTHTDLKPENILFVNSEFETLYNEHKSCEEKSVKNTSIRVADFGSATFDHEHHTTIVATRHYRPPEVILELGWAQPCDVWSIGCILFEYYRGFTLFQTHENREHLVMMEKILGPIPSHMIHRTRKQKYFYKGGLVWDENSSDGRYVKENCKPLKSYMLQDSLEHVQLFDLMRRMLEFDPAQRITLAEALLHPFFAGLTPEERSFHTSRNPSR
Assay [6] concerns the target DNA-PK/Ku70/Ku85 (Homo sapiens) (UniProt P78527+P12956+P13010). Description: Inhibition of DNAPK ATP labeling site harbouring KGGSWIQEINVAEKNWYPR in human A-375 cells at 5 uM by KiNativ Profiling analysis relative to control. It counts as cell-based.
Assay [7] has as its target STE20-like serine/threonine-protein kinase (Homo sapiens) (UniProt Q9H2G2). Description: Inhibition of SLK K2 labeling site harbouring IIHRDLKAGNILFTLDGDIK in human Huh-7 cells at 10 uM by KiNativ Profiling analysis relative to control. It counts as cell-based.
The target in assay [8] is T2, Eukaryotic translation initiation factor 2-alpha kinase 3 (Homo sapiens) (UniProt Q9NZJ5).
T2 sequence (whole entry): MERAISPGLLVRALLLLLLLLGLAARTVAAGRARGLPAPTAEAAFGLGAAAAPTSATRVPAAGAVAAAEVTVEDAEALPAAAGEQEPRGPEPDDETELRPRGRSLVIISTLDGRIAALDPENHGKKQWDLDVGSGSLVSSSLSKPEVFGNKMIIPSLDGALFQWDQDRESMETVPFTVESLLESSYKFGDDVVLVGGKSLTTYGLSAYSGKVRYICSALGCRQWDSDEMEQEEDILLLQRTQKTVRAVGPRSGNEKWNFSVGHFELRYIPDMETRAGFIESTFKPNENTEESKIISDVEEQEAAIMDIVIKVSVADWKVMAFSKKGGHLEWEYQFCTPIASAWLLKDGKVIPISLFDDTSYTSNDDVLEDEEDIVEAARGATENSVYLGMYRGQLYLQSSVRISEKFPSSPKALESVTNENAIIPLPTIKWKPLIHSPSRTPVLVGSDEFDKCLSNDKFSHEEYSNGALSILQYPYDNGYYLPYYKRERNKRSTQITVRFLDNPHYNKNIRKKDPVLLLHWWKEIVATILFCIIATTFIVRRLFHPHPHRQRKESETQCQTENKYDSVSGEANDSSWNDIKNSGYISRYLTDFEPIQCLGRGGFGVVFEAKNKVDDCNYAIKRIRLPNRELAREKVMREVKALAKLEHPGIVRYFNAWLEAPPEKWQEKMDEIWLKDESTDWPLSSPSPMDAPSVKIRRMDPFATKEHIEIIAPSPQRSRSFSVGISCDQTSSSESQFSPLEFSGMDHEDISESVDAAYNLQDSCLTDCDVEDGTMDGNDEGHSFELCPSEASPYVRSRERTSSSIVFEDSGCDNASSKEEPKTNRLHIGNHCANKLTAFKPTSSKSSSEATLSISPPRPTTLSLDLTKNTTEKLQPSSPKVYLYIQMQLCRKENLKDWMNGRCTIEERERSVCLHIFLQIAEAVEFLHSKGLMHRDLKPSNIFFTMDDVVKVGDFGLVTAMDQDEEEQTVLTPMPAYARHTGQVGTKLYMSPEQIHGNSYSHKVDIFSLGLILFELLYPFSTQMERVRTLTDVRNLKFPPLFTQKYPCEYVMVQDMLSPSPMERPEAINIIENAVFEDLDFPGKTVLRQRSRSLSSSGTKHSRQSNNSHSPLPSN
Description: Inhibition of PEK K2 labeling site in human Huh-7 cells at 1 uM by KiNativ Profiling analysis relative to control. It is filed as cell-based.

Assay [9] concerns the target Serine/threonine-protein kinase MARK2 (Homo sapiens) (UniProt Q7KZI7). Description: Inhibition of MARK2 Lys1 labeling site harbouring EVAVKIIDKTQLNSSSLQK in human Huh-7 cell lysate at 1 uM by KiNativ Profiling analysis relative to control. It counts as subcellular.
In assay [10] the target is Cyclin-dependent kinase 9 (Homo sapiens) (UniProt P50750). Description: Inhibition of CDK9 Lys2 labeling site in human Huh-7 cell lysate at 1 uM by KiNativ Profiling analysis relative to control. It is filed as subcellular.
Cyclin-dependent kinase 9 (Homo sapiens), sequence (P50750 whole entry): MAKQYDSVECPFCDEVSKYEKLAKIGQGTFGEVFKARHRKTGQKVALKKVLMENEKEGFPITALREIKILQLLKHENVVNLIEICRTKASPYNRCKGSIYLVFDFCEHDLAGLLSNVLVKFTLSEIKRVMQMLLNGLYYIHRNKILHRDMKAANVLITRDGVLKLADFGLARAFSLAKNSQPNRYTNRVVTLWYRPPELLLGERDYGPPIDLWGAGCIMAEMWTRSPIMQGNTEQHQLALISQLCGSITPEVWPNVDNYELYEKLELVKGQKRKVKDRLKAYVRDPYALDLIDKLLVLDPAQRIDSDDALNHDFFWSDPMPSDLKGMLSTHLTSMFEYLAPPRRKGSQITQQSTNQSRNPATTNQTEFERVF
The target in assay [11] is Calcium/calmodulin-dependent protein kinase type II subunit beta (Homo sapiens) (UniProt Q13554). Description: Inhibition of CaMK2b Lys2 labeling site in human Huh-7 cell lysate at 1 uM by KiNativ Profiling analysis relative to control. It is filed as subcellular.
Calcium/calmodulin-dependent protein kinase type II subunit beta (Homo sapiens), sequence (Q13554 whole entry): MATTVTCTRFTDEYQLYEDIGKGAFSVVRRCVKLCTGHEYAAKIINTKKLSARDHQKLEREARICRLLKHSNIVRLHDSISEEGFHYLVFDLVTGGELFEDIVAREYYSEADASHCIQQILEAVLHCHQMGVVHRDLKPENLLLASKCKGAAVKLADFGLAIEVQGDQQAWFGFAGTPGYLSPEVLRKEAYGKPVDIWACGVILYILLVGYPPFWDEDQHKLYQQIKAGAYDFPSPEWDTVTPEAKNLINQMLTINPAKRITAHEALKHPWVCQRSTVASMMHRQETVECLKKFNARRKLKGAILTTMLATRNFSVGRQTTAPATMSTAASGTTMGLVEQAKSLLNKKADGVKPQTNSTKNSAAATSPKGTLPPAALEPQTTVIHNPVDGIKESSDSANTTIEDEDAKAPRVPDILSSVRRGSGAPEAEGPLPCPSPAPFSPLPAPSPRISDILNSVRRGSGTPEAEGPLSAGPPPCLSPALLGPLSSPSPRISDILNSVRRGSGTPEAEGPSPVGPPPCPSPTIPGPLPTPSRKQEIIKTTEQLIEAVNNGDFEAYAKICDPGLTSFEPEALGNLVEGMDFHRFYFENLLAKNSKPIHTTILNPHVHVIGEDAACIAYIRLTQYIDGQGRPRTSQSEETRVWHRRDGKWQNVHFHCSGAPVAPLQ
In assay [12] the target is Interleukin-1 receptor-associated kinase 1 (Homo sapiens) (UniProt P51617). Description: Inhibition of IRAK1 Lys2 labeling site in human Huh-7 cell lysate at 1 uM by KiNativ Profiling analysis relative to control. It counts as subcellular.
Interleukin-1 receptor-associated kinase 1 (Homo sapiens), sequence (P51617 whole entry, looked up): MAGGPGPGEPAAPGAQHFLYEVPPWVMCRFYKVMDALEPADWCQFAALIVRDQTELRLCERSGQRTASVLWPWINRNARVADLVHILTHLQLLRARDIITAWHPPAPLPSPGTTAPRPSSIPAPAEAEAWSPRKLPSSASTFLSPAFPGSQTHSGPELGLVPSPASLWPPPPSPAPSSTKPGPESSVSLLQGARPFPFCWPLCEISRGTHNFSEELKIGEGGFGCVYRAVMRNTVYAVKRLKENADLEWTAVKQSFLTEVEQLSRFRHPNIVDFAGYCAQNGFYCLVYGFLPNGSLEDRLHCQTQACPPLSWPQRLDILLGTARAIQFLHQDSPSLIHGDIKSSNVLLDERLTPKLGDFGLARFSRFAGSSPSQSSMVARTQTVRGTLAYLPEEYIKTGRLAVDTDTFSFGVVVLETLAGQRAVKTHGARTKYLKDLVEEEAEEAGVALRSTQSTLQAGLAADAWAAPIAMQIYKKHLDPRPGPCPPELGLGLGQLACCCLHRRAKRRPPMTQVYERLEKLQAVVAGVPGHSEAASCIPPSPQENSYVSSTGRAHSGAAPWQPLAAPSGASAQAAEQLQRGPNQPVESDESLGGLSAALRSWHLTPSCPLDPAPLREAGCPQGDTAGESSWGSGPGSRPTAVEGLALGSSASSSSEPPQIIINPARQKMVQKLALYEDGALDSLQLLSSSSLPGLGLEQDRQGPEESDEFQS
Assay [13] concerns the target Serine/threonine-protein kinase SMG1 (Homo sapiens) (UniProt Q96Q15). Description: Inhibition of SMG1 ATP labeling site in human Huh-7 cell lysate at 1 uM by KiNativ Profiling analysis relative to control. It counts as subcellular.

Serine/threonine-protein kinase MARK2 (Homo sapiens), sequence (Q7KZI7 whole entry): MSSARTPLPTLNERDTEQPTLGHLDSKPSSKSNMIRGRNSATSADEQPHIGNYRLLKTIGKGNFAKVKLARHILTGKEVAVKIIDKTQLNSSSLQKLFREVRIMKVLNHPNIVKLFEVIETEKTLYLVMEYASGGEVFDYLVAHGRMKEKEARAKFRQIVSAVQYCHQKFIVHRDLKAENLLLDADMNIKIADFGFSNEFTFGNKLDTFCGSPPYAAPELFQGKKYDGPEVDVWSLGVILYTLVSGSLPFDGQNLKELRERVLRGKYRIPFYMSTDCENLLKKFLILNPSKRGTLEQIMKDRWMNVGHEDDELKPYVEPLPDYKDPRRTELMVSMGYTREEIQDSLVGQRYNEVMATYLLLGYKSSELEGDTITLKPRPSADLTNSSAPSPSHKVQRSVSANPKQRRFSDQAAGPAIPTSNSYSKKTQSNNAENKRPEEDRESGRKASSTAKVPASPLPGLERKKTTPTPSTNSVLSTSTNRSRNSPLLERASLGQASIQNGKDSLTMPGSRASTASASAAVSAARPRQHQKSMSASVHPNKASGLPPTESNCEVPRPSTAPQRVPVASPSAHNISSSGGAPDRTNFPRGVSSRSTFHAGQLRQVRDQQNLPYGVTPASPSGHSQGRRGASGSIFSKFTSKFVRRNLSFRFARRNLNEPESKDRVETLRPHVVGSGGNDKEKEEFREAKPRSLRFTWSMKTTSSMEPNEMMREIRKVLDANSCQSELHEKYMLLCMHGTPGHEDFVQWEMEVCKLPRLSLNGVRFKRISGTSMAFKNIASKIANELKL

For the compound `CCN1CCN(Cc2ccc(NC(=O)c3ccc(C)c(/C=C/c4cnc5[nH]ccc5c4OC)c3)cc2C(F)(F)F)CC1`, the inhibition in [1] is 8.2%; in [2], 0.7%. For the same compound, in [3], the residual activity was found to be 23%.
For the compound `CCN1CCN(Cc2ccc(NC(=O)c3ccc(C)c(Oc4ccnc5[nH]ccc45)c3)cc2C(F)(F)F)CC1`, the inhibition result in assay [4], in assay [5] and in [8] was “inactive” each time. Besides, the inhibition worked out at 7.9% in [6] and 15.7% in assay [7].
As for `CNc1cc(Oc2cc(C(=O)Nc3cc(N4CCN(C)CC4)cc(C(F)(F)F)c3)ccc2C)ncn1`, the inhibition in assay [9] is 7.4%; in assay [10] it was 11.9%; in assay [11], 0.7%; in [12] it was -6.9%; in [13] it was 4.2%.
